Patent US11207308B2, “Pharmaceutical compositions for combination therapy” (PRILENIA NEUROTHERAPEUTICS LTD., priority 2012, dated 2021)
“And” between values parts separate entries of the source, which are not always exact repeats. Equal entries are not always repeated. “Also recorded” adds a separate entry of the source. Where two headings read alike, the source gives them in different places.

What was measured:
[1] = system: Male Sprague-Dawley rats; settings: for Locomotor activity, % of Tetrabenazine control mean / Locomotor activity, % of Tetrabenazine control group mean: full hour of recording; for Locomotor activity in Tetrabenazine treated rats, 15-60 min (in words): 15-60 min period; for Locomotor activity in Tetrabenazine treated rats, 15-60 min (in words) / Locomotor activity in Tetrabenazine treated rats, 0-15 min (in words): combined with Tetrabenazine 0.64 mg/kg, vs Tetrabenazine control; for Effect on Tetrabenazine induced locomotor activity reduction (in words): combined with Tetrabenazine 0.64 mg/kg s.c.; for Locomotor activity in Tetrabenazine treated rats, 0-15 min (in words): first 15 min
Description: No brain tissue was collected from this experiment. […] Each activity monitor consists of a quadratic metal frame equipped with photobeam sensors. […] Each activity monitor is equipped with three rows of infrared photobeam sensors, each row consisting of 16 sensors. […] Photobeam sensors are spaced 2.5 cm apart. Each activity monitor is fitted in an identical sound and light attenuating box (W×L×H—55×55×45) containing a weak house light and a fan. The computer software is written using object oriented programming (LabVIEW™, National instruments, Austin, Tex., USA). Behavioural data from each activity monitor, representing the position (horizontal center of gravity and vertical activity) of the animal at each time, are recorded at a sampling frequency of 25 Hz and collected using a custom written LABView™ application. The data from each recording session are stored and analyzed with respect to distance travelled. Each behavioural recording session lasts 60 min, starting approximately 4 min after the injection of test compound. The results are presented as counts/60 minutes, counts/45 minutes or counts/15 minutes, in arbitrary length units. Statistical comparisons are carried out using Student's t-test against the control group.

[2] = system: striatal DOPAC; assay: Striatal DOPAC tissue level (HPLC/EC), interaction with Tetrabenazine; settings: percentage of Tetrabenazine control group mean
[3] = system: striatal dopamine; assay: Striatal dopamine (DA) tissue level (HPLC/EC), interaction with Tetrabenazine; settings: percentage of Tetrabenazine control group mean
[4] = system: striatal dopamine; assay: Striatal dopamine (DA) tissue level (HPLC/EC), dose-response in naive rats; assay type: in vivo, rat; settings: for DA striatum, dose-response in naive rats: mean ± SEM, percentage of vehicle control group mean
Experimental: (§1) Rats weighed 160-180 g at the time of arrival.
(§2) The treatment groups consisted of Vehicle (saline; NaCl 0.9% v/w) and ACR16 tested at three doses (11; 33 and 100 μmol/kg).
(§3) KR104: Animals were allocated into five different treatment groups, n=4.
(§4) All compounds were injected s.c. four minutes before start of locomotor activity recording at a volume of 5 ml/kg.
(§5) A digital sonifier (Branson Digital Sonifier 250-D) was used to homogenise tissue from the striatum and limbic region. […] All samples were centrifuged at 10.000 rpm for 10 minutes at +4° C. Cortex tissue was filtered in Munktell filter paper 5.5 cm quality 1 F. Tissue eluates were analysed with respect to tissue concentrations (ng/g tissue) of the monoamine transmitter substances (Norepinephrine (NA), dopamine (DA), 5-hydroxytryptamine (5-HT)) as well as their amine metabolites (normetanephrine (NM), 3-methoxytyramine (3-MT)) and acid metabolites ([…] (DOPAC), 5-hydrocyindoleacetic acid (5-HTAA), homovanillic acid (HVA)) by HPLC separations and electrochemical detection (HPLC/EC). Stock standards (DA, NA, 5-HT, 3-MT, DOPAC, HVA, HIAA, 500 μg/ml) and internal standard (AMDA 500 μg/ml) are prepared once every three months. 5-HT and 5HIAA are dissolved in milliQ water. DA, NA, DOPAC, NM, 3-MT and HVA are dissolved in 0.01 M HCl. 5-HT, 5-HIAA, NM and HVA are kept in fridge; DA, DOPAC, NA and 3-MT are kept in freezer.
(§6) Detection potentials relative to Ag/AgCl reference are 0.45 and 0.60V. […] Detection potentials relative to Ag/AgCl reference are 0.45 and 0.65V.

[5] = system: Male Sprague-Dawley rats; assay: Spontaneous locomotor activity, dose-response in drug-naive rats; assay type: in vivo, rat; settings: for Spontaneous locomotor activity, % of the vehicle control group mean: full hour of recording; for Spontaneous locomotor activity, period 15-60 minutes post dosing (in words) / Spontaneous locomotor activity, initial 15 min (in words): vs vehicle control; for Effect on spontaneous locomotor activity (in words): all doses tested, 60 min recording; for Spontaneous locomotor activity, initial 15 min (in words): initial 15 min of recording
Experimental: as §1, §2, §3, §4
During measurements of behavioural activity, a rat is put in a transparent acrylic cage with matted black floor (W×L×H, 41×41×30 cm) which in turn is placed in the activity monitor. […] Two rows are placed along the front and the side of the floor of the cage, at a 90 degree angle, and the third row is placed 10 cm above the floor to measure vertical activity. Photobeam sensors are spaced 2.5 cm apart.

[6] = system: Arc mRNA; assay: Arc gene expression (Arc mRNA, real-time PCR) in striatum and frontal cortex, interaction with Tetrabenazine
[7] = system: striatal DOPAC; assay: Striatal DOPAC tissue level (HPLC/EC), dose-response in naive rats; assay type: in vivo, rat; settings: mean ± SEM, percentage of vehicle control group mean
Experimental: as §1, §2, §3, §4, §5, §6

[8] = system: Arc mRNA; assay: Arc gene expression (Arc mRNA, real-time PCR) in striatum and frontal cortex, dose-response studies; assay type: in vivo, rat
Experimental: as §1, §4
Reference genes are HPRT and cyclophilin.
Correct PCR products are confirmed by agarose gel electroforesis (2%) PCR products are purified with PCR purification kit from Qiagen (Valencia, Calif., USA). All genes are sequenced at MWG, Germany.
For the data shown in FIG. 6, the reverse transcription and PCR were performed as follows:
Reversed transcription is performed by using a ThermoScript kit (Invitrogen).
cDNA of Arc and two reference genes, hypoxanthine-guanine phosphoribosyltransferase (HPRT) and cyclophilin A, was amplified by real-time PCR in either a triplex reaction (Tetrabenazine studies) or three singleplex reactions (studies with Pridopidine and haloperidol).

[9] = 33 μmol/kg s.c. together with Tetrabenazine 0.64 mg/kg
[10] = 100 μmol/kg s.c. together with Tetrabenazine 0.64 mg/kg
[11] = 33 μmol/kg s.c. coadministered with Tetrabenazine 0.64 mg/kg
[12] = 100 μmol/kg s.c. coadministered with Tetrabenazine 0.64 mg/kg
[13] = 0.64 mg/kg s.c., vs vehicle control
[14] = 0.04 mg/kg s.c. together with Tetrabenazine 0.64 mg/kg
[15] = 0.12 mg/kg s.c. together with Tetrabenazine 0.64 mg/kg

Compound: CCCN1CCC(c2cccc(S(C)(=O)=O)c2)CC1 [Pridopidine, 4-(3-Methanesulfonyl-phenyl)-1-propyl-piperidine]
- Locomotor activity, % of Tetrabenazine control mean ([1]; 33 μmol/kg s.c. combined with Tetrabenazine 0.64 mg/kg): 135%
- Locomotor activity, % of Tetrabenazine control mean ([1]; 100 μmol/kg s.c. combined with Tetrabenazine 0.64 mg/kg): 137%
- Locomotor activity in Tetrabenazine treated rats, 15-60 min (in words) [1]: this reversing effect reached significance for the Pridopidine 100 μmol/kg dose group
- Effect on Tetrabenazine induced locomotor activity reduction (in words) [1]: reversed the behavioural inhibition induced by Tetrabenazine
- Locomotor activity in Tetrabenazine treated rats, 0-15 min (in words) [1]: this reversing effect reached significance for the Pridopidine 100 μmol/kg dose group
- DOPAC striatum, interaction with Tetrabenazine [2, 9]: 123 ± 8 ^ %
- DOPAC striatum, interaction with Tetrabenazine [2, 10]: 155% and 155 ± 4 %
- DA striatum, interaction with Tetrabenazine [3, 9]: 91 ± 11%
- DA striatum, interaction with Tetrabenazine [3, 10]: 98 ± 8%
- DA striatum, dose-response in naive rats ([4]; 11 μmol/kg s.c.): 104 ± 3%
- DA striatum, dose-response in naive rats ([4]; 33 μmol/kg s.c.): 101 ± 3%
- DA striatum, dose-response in naive rats ([4]; 100 μmol/kg s.c.): 73 ± 4 %
- Spontaneous locomotor activity, % of the vehicle control group mean ([5]; 33 μmol/kg s.c.): 138%
- Spontaneous locomotor activity, period 15-60 minutes post dosing (in words) [5]: no significant effects were observed
- Effect on spontaneous locomotor activity (in words) ([5]; s.c.): no inhibitory effect on spontaneous locomotor activity
- Spontaneous locomotor activity, initial 15 min (in words) [5]: a significant increase (P<0.05) was seen for the 11 μmol/kg Pridopidine dose group
- Frontal cortex Arc mRNA, % of the Tetrabenazine control group mean [6, 11]: 125%
- Striatal Arc, % of the Tetrabenazine control group mean [6, 11]: 144%
- Frontal cortex Arc mRNA, % of the Tetrabenazine control group mean [6, 12]: 193%
- Striatal Arc, % of the Tetrabenazine control group mean [6, 12]: 207%
- DOPAC striatum, dose-response in naive rats ([7]; 11 μmol/kg s.c.): 117 ± 5 %
- DOPAC striatum, dose-response in naive rats ([7]; 33 μmol/kg s.c.): 178 ± 7 %
- DOPAC striatum, dose-response in naive rats ([7]; 100 μmol/kg s.c.): 236 ± 17 %
- Arc mRNA in the frontal cortex, % of the vehicle control group mean ([8]; 33 μmol/kg s.c.): 149%
- Arc mRNA in the striatum, % of the control group mean ([8]; 33 μmol/kg s.c.): 168%
- Arc mRNA in the frontal cortex, % of the vehicle control group mean ([8]; 100 μmol/kg s.c.): 222%
- Arc mRNA in the striatum, % of the control group mean ([8]; 100 μmol/kg s.c.): 253%

Compound: COc1cc2c(cc1OC)C1CC(=O)C(CC(C)C)CN1CC2 (stereo not drawn) [Tetrabenazine, (SS,RR)-3-Isobutyl-9,10-dimethoxy-1,3,4,6,7,11b-hexahydro-pyrido[2,1-a]isoquinolin-2-one]
- DA striatum, dose-response in naive rats ([4]; 0.37 mg/kg s.c.): 48 ± 2 %
- DA striatum, dose-response in naive rats ([4]; 0.64 mg/kg s.c.): 33 ± 3 %
- Striatal dopamine, % of vehicle control group mean ([4]; 0.64 mg/kg, the dose used in the interaction experiments, throughout the studies performed): approximately 50%
- DA striatum, dose-response in naive rats ([4]; 1.1 mg/kg s.c.): 20 ± 2 %
- Locomotor activity, Tetrabenazine control group vs. vehicle treated controls (in words) ([5]; 0.64 mg/kg s.c., full hour (P<0.001), 0-15 min and 15-60 min (P<0.01), interaction experiment with Pridopidine): significant decrease
- Spontaneous locomotor activity, % of the vehicle control group mean ([5]; 1.1 mg/kg s.c.): 40%
- Spontaneous locomotor activity, period 15-60 minutes post dosing (in words) [5]: significant effects (P<0.05) were observed at 0.64 and 1.1 mg/kg
- Effect on spontaneous locomotor activity (in words) ([5]; s.c.): dose dependently inhibited spontaneous locomotor activity
- Spontaneous locomotor activity, initial 15 min (in words) [5]: significant reductions (P<0.05) were seen both for the 1.1 and 0.37 mg/kg
- DOPAC striatum, dose-response in naive rats ([7]; 0.37 mg/kg s.c.): 144 ± 8 %
- DOPAC striatum, dose-response in naive rats ([7]; 0.64 mg/kg s.c.): 208 ± 14 %
- DOPAC striatum, dose-response in naive rats ([7]; 1.1 mg/kg s.c.): 263 ± 19 %
- Arc mRNA in the frontal cortex, % of control group mean ([8]; 0.64 mg/kg s.c., trend, p=0.14): 83%
- Frontal cortex Arc mRNA, Tetrabenazine alone in the interaction experiments (in words) [8, 13]: significant decrease; also recorded: tended to decrease
- Striatal Arc mRNA, Tetrabenazine alone in the interaction experiments (in words) [8, 13]: no significant effect
- Arc mRNA in the frontal cortex, % of the vehicle control group mean ([8]; 1.1 mg/kg s.c.): 66%
- Arc mRNA in the striatum, % of the vehicle control group mean ([8]; 1.1 mg/kg s.c.): 147%

Compound: O=C(CCCN1CCC(O)(c2ccc(Cl)cc2)CC1)c1ccc(F)cc1 [Haloperidol]
- Locomotor activity, % of Tetrabenazine control group mean ([1]; 0.04 mg/kg s.c. combined with Tetrabenazine 0.64 mg/kg): 51%
- Locomotor activity, % of Tetrabenazine control group mean ([1]; 0.12 mg/kg s.c. combined with Tetrabenazine 0.64 mg/kg): 41%
- Locomotor activity in Tetrabenazine treated rats, 15-60 min (in words) [1]: the reduction was significant for the 0.12 mg/kg dose only
- Effect on Tetrabenazine induced locomotor activity reduction (in words) [1]: further reduced locomotor activity in animals treated with Tetrabenazine
- Locomotor activity in Tetrabenazine treated rats, 0-15 min (in words) [1]: this reducing effect was significant at both the 0.04 mg/kg (P<0.01) and the 0.12 mg/kg (P<0.05) doses
- DOPAC striatum, interaction with Tetrabenazine [2, 14]: 187% and 187 ± 6 %
- DOPAC striatum, interaction with Tetrabenazine [2, 15]: 218% and 218 ± 12 %
- DA striatum, interaction with Tetrabenazine [3, 14]: 79 ± 3 %
- DA striatum, interaction with Tetrabenazine [3, 15]: 87 ± 10%
- DA striatum, dose-response in naive rats ([4]; 0.04 mg/kg s.c.): 95 ± 5%
- DA striatum, dose-response in naive rats ([4]; 0.12 mg/kg s.c.): 78 ± 3 %
- DA striatum, dose-response in naive rats ([4]; 0.37 mg/kg s.c.): 79 ± 5 %
- DA striatum, dose-response in naive rats ([4]; 1.1 mg/kg s.c.): 81 ± 2 %
- Spontaneous locomotor activity, % of the vehicle control group mean ([5]; 0.37 mg/kg s.c.): about 35%
- Spontaneous locomotor activity, % of the vehicle control group mean ([5]; 1.1 mg/kg s.c.): about 35%
- Spontaneous locomotor activity, period 15-60 minutes post dosing (in words) [5]: a significant effect (P<0.05) was observed for the 1.1 mg/kg dose group only
- Effect on spontaneous locomotor activity (in words) ([5]; s.c.): dose-dependent inhibitory effect on spontaneous locomotor activity
- Spontaneous locomotor activity, initial 15 min (in words) [5]: significant reductions (P<0.05) were seen both for the 0.37 and 1.1 mg/kg haloperidol dose groups
- Doses with statistically significant effects on spontaneous locomotor activity ([5]; s.c., not at the lowest dose tested, 0.04 mg/kg): ≥ 0.12 mg/kg
- Striatal Arc, % of the Tetrabenazine control group mean ([6]; 0.04 mg/kg s.c. coadministered with Tetrabenazine 0.64 mg/kg): 272%
- Striatal Arc, % of the Tetrabenazine control group mean ([6]; 0.12 mg/kg s.c. coadministered with Tetrabenazine 0.64 mg/kg): 400%
- Cortical Arc gene expression in rats co-treated with Tetrabenazine (in words) ([6]; 0.04 and 0.12 mg/kg s.c. with Tetrabenazine 0.64 mg/kg): no significant effect
- DOPAC striatum, dose-response in naive rats ([7]; 0.04 mg/kg s.c.): 171 ± 35%
- DOPAC striatum, dose-response in naive rats ([7]; 0.12 mg/kg s.c.): 276 ± 8 %
- DOPAC striatum, dose-response in naive rats ([7]; 0.37 mg/kg s.c.): 254 ± 17 %
- DOPAC striatum, dose-response in naive rats ([7]; 1.1 mg/kg s.c.): 292 ± 10 %
- Arc mRNA in the striatum, % of the vehicle control group mean ([8]; 0.12 mg/kg s.c.): 262%
- Arc mRNA in the striatum, % of the vehicle control group mean ([8]; 0.37 mg/kg s.c.): 331%
- Arc mRNA in the striatum, % of the vehicle control group mean ([8]; 1.1 mg/kg s.c.): 409%
- Cortical Arc gene expression (in words) ([8]; dose-response, 0.12, 0.37 and 1.1 mg/kg s.c.): no significant effect
